{"source": "patent US5843696A", "about": "“Bioassay for toxic substances activated by metabolic enzyme system” (priority 1995, dated 1998)", "key": {"[1]": {"tested_on": "NADH oxidase activity of submitochondrial particles (enzyme complexes I, III, and IV)", "test": "ETr (electron transfer) test linked to cytochrome P-450 liver microsome activation", "details": "all tested concentrations; bovine serum albumin instead of microsomes"}, "[2]": {"tested_on": "NADH oxidation by SMP", "format": "biochemical, beef", "details": "at the tested concentrations; no cytochrome P-450 enzymes"}, "[3]": {"tested_on": "ATP-driven reduction of NAD+ to NADH by submitochondrial particles", "test": "RET (reverse electron transfer) test linked to cytochrome P-450 liver microsome activation", "text": "The effect of this is to drive an endergonic reduction of NAD^+ to NADH as long as there is sufficient presence of ATP. For the process to be effective, therefore, there must be a sufficient quantity of NAD^+ in the sample preparation to serve as a substrate for conversion by competent enzymes. It may also be required that other enzymes such as glutamate, or alcohol or pyruvate dehydrogenases be added from exogenous sources in the event these materials are lost by rupture of the intact mitochondria during particle preparation.\nFor a reverse electron transport assay in which NAD^+ is to be reduced to NADH, one obvious requirement of the assay medium is NAD^+ to be a substrate. To supply a source of electrons, succinate is a preferred substrate which can be oxidized by the complex II enzymes. In order to couple the donor electrons from succinate conversion to NAD^+ reduction, it is necessary to block transport of the electron flow through complex III enzymes. This can be easily accomplished by adding antimycin, a known inhibitor of the complex III enzymes. With this combination, if the mitochondrial membranes and enzymes are otherwise functional, electrons would flow from coenzyme Q back through complex I enzymes to NAD^+. Thus NAD^+ would be reduced to NADH, as long as ATP was present to energize the conversion. Thus, the initiation of the reaction can be controlled by the timing of ATP addition."}}, "data": [{"smiles": "ClC(Cl)(Cl)Cl", "note": "[carbon tetrachloride]", "values": [{"measurement": "inhibition of NADH oxidase activity, secondary control lacking liver microsomes", "setting": "[1]", "result": 4, "unit": "%"}, {"measurement": "inhibition in conventional ETr protocol", "setting": "[2]", "result": "no inhibition"}]}, {"smiles": "c1ccc2cc3ccccc3cc2c1", "note": "[anthracene]", "values": [{"measurement": "inhibition in RET test, secondary controls lacking liver microsomes", "setting": "[3]; 1 ppm, no liver microsomes", "result": "no inhibition"}]}, {"smiles": "Brc1ccccc1", "note": "[bromobenzine]", "values": [{"measurement": "inhibition relative to controls lacking the test compound", "setting": "[3]; 69 ppm, microsomes from phenobarbital-induced rats", "result": 68, "unit": "%"}, {"measurement": "inhibition in controls containing the test compound but lacking microsomes", "setting": "[3]; 69 ppm, no microsomes", "result": 22, "unit": "%"}]}]}
